Laboratory results from the supplement of paper PMC9663587.

Legend:
Assay in all cases: increase in dead-cell fraction, 72 h; higher = more death;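 also: breast cancer cell lines in 384-well plates, stained with Hoechst plus LIVE/DEAD far red dye and imaged, cells above an LDR intensity threshold counted dead, Hoechst-negative corpses included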
TGX221 = compound: CC1=CN2C(=O)C=C(N=C2C(=C1)C(C)NC3=CC=CC=C3)N4CCOCC4 [TGX221]
[1] = compound: CCC1=CN=CN=C1N2CCN(CC2)CC3=NC4=C(N3)C=C(C=C4)C(F)(F)F
senexin b = compound: CN1CCN(C(=O)c2ccc3cc(CCNc4ncnc5ccc(C#N)cc45)ccc3c2)CC1 [senexin b]
Cabozantinib = compound: COc1cc2nccc(Oc3ccc(NC(=O)C4(C(=O)Nc5ccc(F)cc5)CC4)cc3)c2cc1OC [Cabozantinib]
Doxorubicin = compound: COc1cccc2c1C(=O)c1c(O)c3c(c(O)c1C2=O)C[C@@](O)(C(=O)CO)C[C@@H]3O[C@H]1C[C@H](N)[C@H](O)[C@H](C)O1 [Doxorubicin]
AZD7762 = compound: NC(=O)Nc1cc(-c2cccc(F)c2)sc1C(=O)N[C@H]1CCCNC1 [AZD7762]
Everolimus = compound: CO[C@H]1C[C@@H]2CC[C@@H](C)[C@@](O)(O2)C(=O)C(=O)N2CCCC[C@H]2C(=O)O[C@H]([C@H](C)C[C@@H]2CC[C@@H](OCCO)[C@H](OC)C2)CC(=O)[C@H](C)/C=C(\C)[C@@H](O)[C@@H](OC)C(=O)[C@H](C)C[C@H](C)/C=C/C=C/C=C/1C [Everolimus]
THZ-P1-2 = compound: CN(C)C/C=C/C(=O)NC1=CC=C(C=C1)C(=O)NC2=CC=CC(=C2)NC3=NC=NC(=C3)C4=CNC5=CC=CC=C54 [THZ-P1-2]
Rucaparib = compound: CNCc1ccc(-c2[nH]c3cc(F)cc4c3c2CCNC4=O)cc1 [Rucaparib]
Volasertib/BI6727 = compound: CC[C@@H]1C(=O)N(C)c2cnc(Nc3ccc(C(=O)N[C@H]4CC[C@H](N5CCN(CC6CC6)CC5)CC4)cc3OC)nc2N1C(C)C [Volasertib/BI6727]
AZD2014 = compound: CNC(=O)c1cccc(-c2ccc3c(N4CCOC[C@@H]4C)nc(N4CCOC[C@@H]4C)nc3n2)c1 [AZD2014]
BVD523 = compound: CC(C)Nc1cc(-c2c[nH]c(C(=O)N[C@H](CO)c3cccc(Cl)c3)c2)c(Cl)cn1 [BVD523]

Cell Line: AU565
- increase in dead-cell fraction (TGX221; 0.001 µM): 0
- increase in dead-cell fraction (TGX221; 0.003162 µM): -0.0043
- increase in dead-cell fraction (TGX221; 0.01 µM): -0.0042
- increase in dead-cell fraction (TGX221; 0.03162 µM): -0.0019
- increase in dead-cell fraction (TGX221; 0.1 µM): 0.0014
- increase in dead-cell fraction (TGX221; 0.3162 µM): 0.003
- increase in dead-cell fraction (TGX221; 1 µM): 0.0069
- increase in dead-cell fraction (TGX221; 3.162 µM): 0.0045
- increase in dead-cell fraction (TGX221; 10 µM): 0.0099
- increase in dead-cell fraction ([1]; 0.001 µM): 0.0018
- increase in dead-cell fraction ([1]; 0.003162 µM): -0.0015
- increase in dead-cell fraction ([1]; 0.01 µM): -0.0042
- increase in dead-cell fraction ([1]; 0.03162 µM): -0.0013
- increase in dead-cell fraction ([1]; 0.1 µM): 0.0031
- increase in dead-cell fraction ([1]; 0.3162 µM): -0.0005
- increase in dead-cell fraction ([1]; 1 µM): 0.001
- increase in dead-cell fraction ([1]; 3.162 µM): 0.0056
- increase in dead-cell fraction ([1]; 10 µM): 0.0157
- increase in dead-cell fraction (senexin b; 0.001 µM): -0.0057
- increase in dead-cell fraction (senexin b; 0.003162 µM): -0.0066
- increase in dead-cell fraction (senexin b; 0.01 µM): -0.0019
- increase in dead-cell fraction (senexin b; 0.03162 µM): -0.0056
- increase in dead-cell fraction (senexin b; 0.1 µM): -0.0146
- increase in dead-cell fraction (senexin b; 0.3162 µM): 0.0036
- increase in dead-cell fraction (senexin b; 1 µM): 0.0078
- increase in dead-cell fraction (senexin b; 3.162 µM): 0.0105
- increase in dead-cell fraction (senexin b; 10 µM): -0.0068
- increase in dead-cell fraction (Cabozantinib; 0.001 µM): 0.0017
- increase in dead-cell fraction (Cabozantinib; 0.003162 µM): 0.0057
- increase in dead-cell fraction (Cabozantinib; 0.01 µM): 0.0018
- increase in dead-cell fraction (Cabozantinib; 0.03162 µM): -0.0008
- increase in dead-cell fraction (Cabozantinib; 0.1 µM): -0.003
- increase in dead-cell fraction (Cabozantinib; 0.3162 µM): 0.0025
- increase in dead-cell fraction (Cabozantinib; 1 µM): 0.0028
- increase in dead-cell fraction (Cabozantinib; 3.162 µM): -0.0021
- increase in dead-cell fraction (Cabozantinib; 10 µM): 0.0274
- increase in dead-cell fraction (Doxorubicin; 0.0003162 µM): 0.0037
- increase in dead-cell fraction (Doxorubicin; 0.001 µM): 0.0029
- increase in dead-cell fraction (Doxorubicin; 0.003162 µM): -0.0003
- increase in dead-cell fraction (Doxorubicin; 0.01 µM): -0.0009
- increase in dead-cell fraction (Doxorubicin; 0.03162 µM): 0.0192
- increase in dead-cell fraction (Doxorubicin; 0.1 µM): 0.0682
- increase in dead-cell fraction (Doxorubicin; 0.3162 µM): 0.138
- increase in dead-cell fraction (Doxorubicin; 1 µM): 0.199
- increase in dead-cell fraction (Doxorubicin; 3.162 µM): 0.22
- increase in dead-cell fraction (AZD7762; 0.001 µM): 0.0024
- increase in dead-cell fraction (AZD7762; 0.003162 µM): -0.0005
- increase in dead-cell fraction (AZD7762; 0.01 µM): -0.0036
- increase in dead-cell fraction (AZD7762; 0.03162 µM): -0.0044
- increase in dead-cell fraction (AZD7762; 0.1 µM): -0.0002
- increase in dead-cell fraction (AZD7762; 0.3162 µM): 0.0011
- increase in dead-cell fraction (AZD7762; 1 µM): 0.0228
- increase in dead-cell fraction (AZD7762; 3.162 µM): 0.106
- increase in dead-cell fraction (AZD7762; 10 µM): 0.232
- increase in dead-cell fraction (Everolimus; 0.001 µM): 0.0191
- increase in dead-cell fraction (Everolimus; 0.003162 µM): 0.0225
- increase in dead-cell fraction (Everolimus; 0.01 µM): 0.0257
- increase in dead-cell fraction (Everolimus; 0.03162 µM): 0.0132
- increase in dead-cell fraction (Everolimus; 0.1 µM): 0.0177
- increase in dead-cell fraction (Everolimus; 0.3162 µM): 0.0133
- increase in dead-cell fraction (Everolimus; 1 µM): 0.011
- increase in dead-cell fraction (Everolimus; 3.162 µM): 0.019
- increase in dead-cell fraction (Everolimus; 10 µM): 0.0283
- increase in dead-cell fraction (THZ-P1-2; 0.01 µM): -0.0013
- increase in dead-cell fraction (THZ-P1-2; 0.03162 µM): -0.0105
- increase in dead-cell fraction (THZ-P1-2; 0.1 µM): 0.0091
- increase in dead-cell fraction (THZ-P1-2; 0.3162 µM): -0.0029
- increase in dead-cell fraction (THZ-P1-2; 1 µM): -0.0001
- increase in dead-cell fraction (THZ-P1-2; 3.162 µM): -0.0022
- increase in dead-cell fraction (THZ-P1-2; 10 µM): 0.569
- increase in dead-cell fraction (Rucaparib; 0.001 µM): 0.0051
- increase in dead-cell fraction (Rucaparib; 0.003162 µM): -0.0024
- increase in dead-cell fraction (Rucaparib; 0.01 µM): 0.0015
- increase in dead-cell fraction (Rucaparib; 0.03162 µM): 0.0073
- increase in dead-cell fraction (Rucaparib; 0.1 µM): -0.0049
- increase in dead-cell fraction (Rucaparib; 0.3162 µM): -0.0044
- increase in dead-cell fraction (Rucaparib; 1 µM): -0.0017
- increase in dead-cell fraction (Rucaparib; 3.162 µM): -0.0036
- increase in dead-cell fraction (Rucaparib; 10 µM): -0.0017
- increase in dead-cell fraction (Volasertib/BI6727; 0.0001 µM): -0.0025
- increase in dead-cell fraction (Volasertib/BI6727; 0.0003162 µM): 0.0017
- increase in dead-cell fraction (Volasertib/BI6727; 0.001 µM): -0.0005
- increase in dead-cell fraction (Volasertib/BI6727; 0.003162 µM): 0.0085
- increase in dead-cell fraction (Volasertib/BI6727; 0.01 µM): 0.284
- increase in dead-cell fraction (Volasertib/BI6727; 0.03162 µM): 0.353
- increase in dead-cell fraction (Volasertib/BI6727; 0.1 µM): 0.412
- increase in dead-cell fraction (Volasertib/BI6727; 0.3162 µM): 0.353
- increase in dead-cell fraction (Volasertib/BI6727; 1 µM): 0.152
- increase in dead-cell fraction (AZD2014; 0.001 µM): 0.0342
- increase in dead-cell fraction (AZD2014; 0.003162 µM): 0.0014
- increase in dead-cell fraction (AZD2014; 0.01 µM): 0.032
- increase in dead-cell fraction (AZD2014; 0.03162 µM): 0.0412
- increase in dead-cell fraction (AZD2014; 0.1 µM): 0.0311
- increase in dead-cell fraction (AZD2014; 0.3162 µM): 0.107
- increase in dead-cell fraction (AZD2014; 1 µM): 0.0854
- increase in dead-cell fraction (AZD2014; 3.162 µM): 0.0584
- increase in dead-cell fraction (AZD2014; 10 µM): 0.126
- increase in dead-cell fraction (BVD523; 0.001 µM): -0.0105
- increase in dead-cell fraction (BVD523; 0.003162 µM): -0.0083
- increase in dead-cell fraction (BVD523; 0.01 µM): -0.0074
- increase in dead-cell fraction (BVD523; 0.03162 µM): -0.0063
- increase in dead-cell fraction (BVD523; 0.1 µM): -0.0004
- increase in dead-cell fraction (BVD523; 0.3162 µM): -0.0069
- increase in dead-cell fraction (BVD523; 1 µM): 0.0092
- increase in dead-cell fraction (BVD523; 3.162 µM): 0.0104
- increase in dead-cell fraction (BVD523; 10 µM): 0.0436
